Measured values published in paper PMC7952052, “Flavonoids and Acid-Hydrolysis derivatives of Neo-Clerodane diterpenes from Teucrium flavum subsp. glaucum as inhibitors of the HIV-1 reverse transcriptase–associated RNase H function” (Journal of Enzyme Inhibition and Medicinal Chemistry, 2021).

Key:
[1] = molecular target: T1, HIV-1 RT-associated RNase H function (Human immunodeficiency virus type 1 group M subtype B, UniProt P04585); experiment: HIV-1 DNA polymerase-independent RNase H activity determination (wt RT); assay type: biochemical; settings: for remaining activity at 100 µM: in the presence of 100 µM of the compound, read-out: Percentage of residual enzyme activity (RNase H); for IC50: concentration required to reduce the enzyme activity by 50%, read-out: RnaseH IC50
T1 construct: The 1:1 ration between the p66/p51 subunits was also verified; His6; made in house; host or cells: E. coli strain M15
Method: (§1) HIV-1 RT group M subtype B. Heterodimeric RT was expressed essentially as previously described. Briefly, E. coli strain M15 containing the p6HRT-prot vector was grown to an optical density at 600 nm of 0.7 and induced with 1.7 mM isopropyl β-D-1-thiogalactopyranoside (IPTG) for 4 h. Protein purification was carried out with a BioLogic LP system (Biorad), using a combination of immobilised metal affinity and ion exchange chromatography. Cell pellets were resuspended in lysis buffer (50 mM sodium phosphate buffer pH 7.8, containing 0.5 mg/mL lysozyme), incubated on ice for 20 min, and after adding NaCl to a final concentration of 0.3 M, were sonicated and centrifuged at […] for 1 h. The supernatant was loaded onto a Ni^2+-NTA-Sepharose column pre-equilibrated with loading buffer (50 mM sodium phosphate buffer pH 7.8, containing 0.3 M NaCl, 10% glycerol, and 10 mM imidazole) and washed thoroughly with wash buffer (50 mM sodium phosphate buffer pH 6.0, containing 0.3 M NaCl, 10% glycerol, and 80 mM imidazole). RT was eluted with an imidazole gradient in wash buffer (0–0.5 M). Fractions were collected, protein purity was checked by SDS-PAGE and found to be higher than 90%. The 1:1 ration between the p66/p51 subunits was also verified. Enzyme-containing fractions were pooled and diluted 1:1 with 50 mM sodium phosphate buffer pH 7.0, containing 10% glycerol; and then loaded into a Hi-trap heparin HP GE (Healthcare Lifescience) pre-equilibrated with 10 column volumes of loading buffer (50 mM sodium phosphate buffer pH 7.0, containing 10% glycerol and 150 mM NaCl). The column was then washed with loading buffer and the RT was eluted with Elute Buffer 2 (50 mM sodium phosphate pH 7.0, 10% glycerol, 1 M NaCl). Fractions were collected, protein was dialysed and stored in buffer containing 50 mM Tris-HCl pH 7.0, 25 mM NaCl, 1 mM EDTA, and 50% glycerol. Catalytic activities and protein concentrations were determined. Enzyme-containing fractions were pooled and aliquots were stored at −80 °C.
(§2) HIV RT-associated RNase H activity was measured as described[36] using the RNase H inhibitor RDS1759[11] as a control. In 100 µL reaction volume containing 50 mM Tris-HCl buffer pH 7.8, 6 mM MgCl2, 1 mM dithiothreitol (DTT), 80 mM KCl, 0.25 µM hybrid RNA/DNA 5′-GAUCUGAGCCUGGGAGCU-Fluorescin-3′ (HPLC, dry, QC: Mass Check) (available from Metabion) 5′-Dabcyl-AGCTCCCAGGCTCAGATC-3′ (HPLC, dry, QC: Mass Check), increasing concentrations of inhibitor, whose dilution were made in water, and 20 ng of wt RT according to a linear range of dose-response curve. The reaction mixture was incubated for 1 h at 37 °C, stopped by addition of EDTA and products were measured with a multilabel counter plate reader Victor 3 (Perkin Elmer model 1420–051) equipped with filters for 490/528 nm (excitation/emission wavelength).

HIV-1 integrase = system: HIV-1 integrase; design: method as in earlier work; settings: cited from earlier work
[2] = molecular target: T2, HIV-1 RT-associated RDDP function (Human immunodeficiency virus type 1 group M subtype B, UniProt P04585); experiment: HIV-1 RNA-dependent DNA polymerase (RDDP) activity determination; assay type: biochemical; settings: for remaining activity at 100 µM: read-out: Percentage of residual enzyme activity (RDDP); for IC50: wt RT
T2 construct: The 1:1 ration between the p66/p51 subunits was also verified; His6; made in house; host or cells: E. coli strain M15
Method: as §1
RNA-dependent DNA polymerase (RDDP) activity was measured as described[37] using the NNRTI Efavirenz as a control. In 25 µL volume containing 60 mM Tris-HCl buffer pH 8.1, 8 mM MgCl2, 60 mM KCl, 13 mM DTT, 2.5 µM poly (A)- oligo (dT), 100 µM dTTP, increasing concentrations of inhibitor, whose dilution were made in water, and 6 ng of wt RT according to a linear range of dose-response curve. After enzyme addition, the reaction mixture was incubated for 30 min at 37 °C and the stopped by addition of EDTA. Reaction products were detected by picogreen addition and measured with a multilabel counter plate reader Victor 3 (Perkin Elmer model 1420–051) equipped with filters for 502/523 nm (excitation/emission wavelength).

[3] = molecular target: T3, HIV-1 RT R448A, RNase H function (Human immunodeficiency virus type 1 group M subtype B, UniProt P04585, R1035A); experiment: RNase H inhibition on mutated RT R448A; assay type: biochemical
T3 construct: introduce amino acid substitutions into the p66 HIV-1 RT subunit coded in a p6HRT- prot plasmid; His6; made in house; host or cells: E. coli strain M15
Method: as §2
(§3) The QuikChange mutagenesis kit (Agilent Technologies Inc., Santa Clara, CA) was used to introduce amino acid substitutions into the p66 HIV-1 RT subunit coded in a p6HRT- prot plasmid by following the manufacturer’s instructions.
(§4) In order to verify this hypothesis, it was chosen to perform site-directed mutagenesis, determining the independent impact of several amino acid substitutions on the potency of the compound to inhibit the RNase H function. All the selected aminoacids are localised in the RNase H domain and are potentially crucial for the binding of RNase H function inhibitors. […]

[4] = system: HIV-1 RT R448A, RNase H function; experiment: RNase H inhibition on mutated RT R448A; assay type: biochemical; settings: RNase H IC50 ratio mutant/wt
Method: as §2, §3, §4

[5] = molecular target: T4, HIV-1 RT V108F, RNase H function (Human immunodeficiency virus type 1 group M subtype B, UniProt P04585, V695F); experiment: RNase H inhibition on mutated RT V108F; assay type: biochemical
T4 construct: introduce amino acid substitutions into the p66 HIV-1 RT subunit coded in a p6HRT- prot plasmid; His6; made in house; host or cells: E. coli strain M15
Method: as §2, §3, §4

[6] = system: HIV-1 RT R557A, RNase H function; experiment: RNase H inhibition on mutated RT R557A; assay type: biochemical; settings: RNase H IC50 ratio mutant/wt
Method: as §2, §3, §4

[7] = molecular target: T5, HIV-1 RT R557A, RNase H function (Human immunodeficiency virus type 1 group M subtype B, UniProt P04585, R1144A); experiment: RNase H inhibition on mutated RT R557A; assay type: biochemical
T5 construct: introduce amino acid substitutions into the p66 HIV-1 RT subunit coded in a p6HRT- prot plasmid; His6; made in house; host or cells: E. coli strain M15
Method: as §2, §3, §4

[8] = molecular target: HIV-1 RT L503F, RNase H function (Human immunodeficiency virus 1, UniProt P04585, L1090F); experiment: RNase H inhibition on mutated RT L503F; assay type: biochemical; settings: row printed L503F
Method: as §2, §3, §4

[9] = molecular target: T6, HIV-1 RT A502F, RNase H function (Human immunodeficiency virus type 1 group M subtype B, UniProt P04585, A1089F); experiment: RNase H inhibition on mutated RT A502F; assay type: biochemical
T6 construct: introduce amino acid substitutions into the p66 HIV-1 RT subunit coded in a p6HRT- prot plasmid; His6; made in house; host or cells: E. coli strain M15
Method: (§5) HIV RT-associated RNase H activity was measured as described[36] using the RNase H inhibitor RDS1759[11] as a control. In 100 µL reaction volume containing 50 mM Tris-HCl buffer pH 7.8, 6 mM MgCl2, 1 mM dithiothreitol (DTT), 80 mM KCl, 0.25 µM hybrid RNA/DNA 5′-[sequence]-Fluorescin-3′ (HPLC, dry, QC: Mass Check) (available from Metabion) 5′-Dabcyl-[sequence]-3′ (HPLC, dry, QC: Mass Check), increasing concentrations of inhibitor, whose dilution were made in water, and 20 ng of wt RT according to a linear range of dose-response curve. The reaction mixture was incubated for 1 h at 37 °C, stopped by addition of EDTA and products were measured with a multilabel counter plate reader Victor 3 (Perkin Elmer model 1420–051) equipped with filters for 490/528 nm (excitation/emission wavelength).
(§6) The next mutation involved the residue A502 located in the alpha helix, close to the second identified allosteric binding pocket. […] A502 residue was replaced by a phenylalanine with the aim to provoke a shift of alpha helix that might reduce the space between the two subunits p51 and p66 and therefore hinder the entrance of the compound in the pocket.

[10] = system: HIV-1 RT A502F, RNase H function; experiment: RNase H inhibition on mutated RT A502F; assay type: biochemical; settings: RNase H IC50 ratio mutant/wt
Method: as §5, §6

[11] = molecular target: T7, HIV-1 RT A508V, RNase H function (Human immunodeficiency virus type 1 group M subtype B, UniProt P04585, A1095V); experiment: RNase H inhibition on mutated RT A508V; assay type: biochemical
T7 construct: introduce amino acid substitutions into the p66 HIV-1 RT subunit coded in a p6HRT- prot plasmid; His6; made in house; host or cells: E. coli strain M15
Method: as §2, §3, §4

[12] = in the presence of 100 µM of the compound

SMILES | remaining activity at 100 µM [1] [%] | IC50 ([1]; wt RT) [µM] | remaining activity at 100 µM [2, 12] [%] | IC50 [2] [µM] | folds less active on RNase H than flavuglaucin B (7) ([1]; wt RT) | also measured
COc1ccc(-c2cc(=O)c3c(O)c(OC)c(OC)cc3o2)cc1 [Compound 1, salvigenin] | 80 | > 100 |  |  |  | 
COc1cc2oc(-c3ccc(O)cc3)cc(=O)c2c(O)c1OC [Compound 2, cirsimaritin] |  | 89 ± 7 |  |  |  | decrease in RNase H inhibitory activity relative to cirsiliol (3) ([1]; wt RT): 10 folds
COc1cc2oc(-c3ccc(O)c(O)c3)cc(=O)c2c(O)c1OC [Compound 3, cirsiliol] |  | 8.2 ± 0.6 |  |  |  | concentration inhibiting HIV-1 integrase (HIV-1 integrase): 12 µM
CC(=O)OCC12C(O)CC(C)C3(CC(c4ccoc4)OC3=O)C1CCC(=O)C21CO1 (stereo not shown) [Compound 4, teuflavin] | 80 | > 100 |  |  |  | 
CC(=O)OCC1=C2C(COC3OC(CO)C(O)C(O)C3OC(C)=O)CC(C)C3(CC(c4ccoc4)OC3=O)C2CCC1 (stereo not shown) [Compound 5, teuflavoside] | 74 | > 100 |  |  |  | 
CC(=O)OCC1=CCCC2C1=CCC(C)C21CC(c2ccoc2)OC1=O (stereo not shown) [Compound 6, Flavuglaucin A] |  | 20.2 ± 2 | 80 | > 100 | about two | 
CC1CC=C2C(CO)=CCCC2C12CC(c1ccoc1)OC2=O (stereo not shown) [Compound 7, Flavuglaucin B] |  | 9.1 ± 0.2 |  | > 100 |  | IC50 [3]: 49.7 µM; loss in potency, R448A vs wild type [4]: 5.5 fold; change of RNase H IC50 against V108F compared with the wild type enzyme [5]: slight increase in IC50; Percentage of residual enzyme activity (RDDP) [2, 12]: 80%; loss in potency, R557A vs wild type [6]: 6.5 fold; IC50 [7]: 59.2 µM; IC50 [8]: 27.3 µM; IC50 [9]: 32.8 µM; loss in potency, A502F vs wild type [10]: 3.5 fold; IC50 [11]: > 100 µM
CC1=C2CCC(C)C3(CC(c4ccoc4)OC3=O)C2CCC1=O (stereo not shown) [Compound 8, Flavuglaucin C] |  | 52.4 ± 0.4 | 80 | > 100 | about six | 
CC1CCC2=C(C=O)CCCC2C12CC(c1ccoc1)OC2=O (stereo not shown) [Compound 9] |  | 36.4 ± 0.4 | 80 | > 100 | four | 
